{"source": "paper PMC9533837", "about": "(Antiviral Research, 2003)", "key": {"[1]": {"tested_on": "MPX Zaire (V79-1-005-Scab)", "experiment": "organism not typed", "type": "cell-based, monkeypox"}, "[2]": {"tested_on": "VAR-YAM (1946 Japan Yamada isolate of VAR major)", "experiment": "organism not typed", "type": "cell-based, variola major"}, "[3]": {"tested_on": "VAR-YAM (1946 Japan Yamada isolate of VAR major)", "experiment": "organism not typed", "type": "cell-based, variola major", "remark": "listed apart in the source"}, "[4]": {"tested_on": "VAR-GAR (1966 Brazil Garcia isolate of VAR minor)", "experiment": "organism not typed", "type": "cell-based, variola minor"}, "[5]": {"tested_on": "VAR-BSH (1975 Bangladesh isolate of VAR major)", "experiment": "organism not typed", "type": "cell-based, variola major"}, "CPX": {"tested_on": "CPX", "set-up": "species or system mice", "details": "mouse, in vivo"}, "VAC": {"tested_on": "VAC", "set-up": "species or system mice", "details": "mouse, in vivo"}, "[6]": {"tested_on": "VAR-GAR (1966 Brazil Garcia isolate of VAR minor)", "experiment": "organism not typed", "type": "cell-based, variola minor", "remark": "listed apart in the source"}, "CPX Brighton [7]": {"tested_on": "CPX Brighton", "experiment": "organism not typed", "type": "cell-based, cowpox"}, "[8]": {"tested_on": "VAR-BSH (1975 Bangladesh isolate of VAR major)", "experiment": "organism not typed", "type": "cell-based, variola major", "remark": "listed apart in the source"}, "[9]": {"tested_on": "MPX Zaire (V79-1-005-Scab)", "experiment": "organism not typed", "type": "cell-based, monkeypox", "remark": "listed apart in the source"}, "CPX Brighton [10]": {"tested_on": "CPX Brighton", "experiment": "organism not typed", "type": "cell-based, cowpox", "remark": "listed apart in the source"}, "VAC Copenhagen [11]": {"tested_on": "VAC Copenhagen", "experiment": "microbe, parasite or virus in culture", "type": "cell-based, vaccinia virus"}, "VAC Copenhagen [12]": {"tested_on": "VAC Copenhagen", "experiment": "microbe, parasite or virus in culture", "type": "cell-based, vaccinia virus", "remark": "listed apart in the source"}, "[13]": {"tested_on": "DNA polymerase of CMV versus human DNA polymerase α", "details": "cited from earlier work"}}, "data": [{"molecule": "Nc1nccc2c1ncn2[C@@H]1C[C@@H](CO)[C@H](O)[C@@H]1O", "note": "[C-ca3-Ado, Carbocyclic 3-deazaadenosine]", "values": [{"measurement": "IC50 MPX LLC-MK2", "setting": "[1]", "result": 0.8, "unit": "µg/mL"}, {"measurement": "Therapeutic index (TI) MPX LLC-MK2", "setting": "[1]", "result": 125}, {"measurement": "Cytotoxicity TC50 LLC-MK2", "setting": "LLC-MK2 cells", "result": ">100", "unit": "µg/mL"}, {"measurement": "IC50 VAR-YAM LLC-MK2", "setting": "[2]", "result": 1.4, "unit": "µg/mL"}, {"measurement": "Therapeutic index (TI) VAR-YAM LLC-MK2", "setting": "[2]", "result": 71.4}, {"measurement": "IC50 VAR-YAM Vero", "setting": "[3]", "result": 5.3, "unit": "µg/mL"}, {"measurement": "Therapeutic index (TI) VAR-YAM Vero", "setting": "[3]", "result": 18.9}, {"measurement": "IC50 VAR-GAR Vero", "setting": "[4]", "result": 1.6, "unit": "µg/mL"}, {"measurement": "Therapeutic index (TI) VAR-GAR Vero", "setting": "[4]", "result": 62.5}, {"measurement": "IC50 VAR-BSH LLC-MK2", "setting": "[5]", "result": 1.6, "unit": "µg/mL"}, {"measurement": "Therapeutic index (TI) VAR-BSH LLC-MK2", "setting": "[5]", "result": 62.5}, {"measurement": "protective effect on CPX-infected mice", "setting": "CPX", "result": "modest protective effect"}, {"measurement": "Cytotoxicity TC50 Vero", "setting": "Vero cells", "result": ">100", "unit": "µg/mL"}, {"measurement": "protective effect on VAC-infected mice", "setting": "VAC", "result": "modest protective effect"}, {"measurement": "IC50 VAR-GAR LLC-MK2", "setting": "[6]", "result": 4.4, "unit": "µg/mL"}, {"measurement": "Therapeutic index (TI) VAR-GAR LLC-MK2", "setting": "[6]", "result": 22.7}, {"measurement": "IC50 CPX Vero", "setting": "CPX Brighton [7]", "result": ">100", "unit": "µg/mL"}, {"measurement": "Therapeutic index (TI) CPX Vero", "setting": "CPX Brighton [7]", "result": 1.0}, {"measurement": "IC50 VAR-BSH Vero", "setting": "[8]", "result": 1.2, "unit": "µg/mL"}, {"measurement": "Therapeutic index (TI) VAR-BSH Vero", "setting": "[8]", "result": 83.3}, {"measurement": "IC50 MPX Vero", "setting": "[9]", "result": 0.4, "unit": "µg/mL"}, {"measurement": "Therapeutic index (TI) MPX Vero", "setting": "[9]", "result": 250}, {"measurement": "IC50 CPX LLC-MK2", "setting": "CPX Brighton [10]", "result": 25.2, "unit": "µg/mL"}, {"measurement": "Therapeutic index (TI) CPX LLC-MK2", "setting": "CPX Brighton [10]", "result": 4.0}, {"measurement": "IC50 VAC LLC-MK2", "setting": "VAC Copenhagen [11]", "result": 3.4, "unit": "µg/mL"}, {"measurement": "Therapeutic index (TI) VAC LLC-MK2", "setting": "VAC Copenhagen [11]", "result": 29.4}, {"measurement": "IC50 VAC Vero", "setting": "VAC Copenhagen [12]", "result": 1.2, "unit": "µg/mL"}, {"measurement": "Therapeutic index (TI) VAC Vero", "setting": "VAC Copenhagen [12]", "result": 83.3}]}, {"molecule": "Nc1ccn(CC(CO)OCP(=O)(O)OP(=O)(O)OP(=O)(O)O)c(=O)n1", "note": "(centres unmarked) [Cidofovir diphosphate, cidofovir 5′-diphosphate]", "values": [{"measurement": "lower concentration inhibiting DNA polymerase of CMV than human DNA polymerase α", "setting": "[13]", "result": 10, "unit": "fold"}]}]}
